Laboratory results published in US6689762B1, “Composition and methods for treatment of HIV infection” (Enzon Pharmaceuticals, Inc., priority 1998, dated 2004).
“And” between values parts separate entries of the source, which are not always exact repeats. Identical values can stand only once.

What was measured:
Assay type in all cases: cell-based
[1] = system: HIV-RT in supernatants of HIV-1 infected CEM/0 T-cells; experiment: HIV-RT ELISA in supernatants of HIV-1 infected CEM/0 T-cells; settings: for inhibition of HIV-RT in supernatants: Experiment 8 text, day 7; for HIV-RT (negative values set to 0): Table 6, per specimen
Experimental: (§1) The following is a general procedure for the HIV-reverse transcriptase assay:
Materials and Methods: The cell line used for this experiment is CEM/0, a human T-cell leukemic cell line. PEG-ASNase (ONCASPAR) is provided by Rhone-Poulenc Rorer. Saquinavin (SQ) is commercially available. AZT is purchased from Sigma. […] The drug concentrations used are as follows:
(§2) Briefly, 3×10^6 cells/ml are stimulated with PHA+ media for 48 hours at 37° C. with 5% CO2. Also, the same number of cells are incubated in PHA free media for 48 hours to serve as the negative control. At this point the cells are inoculated with the HIV-1 virus as per standard protocol. Note that in this experiment, the HIV containing supernatant from the PLA-stimulated healthy human peripheral mononuclear cells (PBMC) is not removed from the PHA-stimulated CEM/0 cell culture. […] These virus particles are released by already infected T-cells and/or lymph nodes of patients.
(§3) The experimental drugs are added to the cells in the appropriate concentrations at the same time as viral inoculation or 90 minutes after the viral incubation, a time sufficient for the T-cells to be infected and start producing new HIV-1 virus particles. The control cells are resuspended in drug-free media for the duration of the exposure which lasted seven days. Aliquots of media from the control flasks only are obtained on day 5 post Rx. At day seven, three 1 ml each, aliquots of media are removed from the flasks and stored under liquid nitrogen. In addition, the remaining cells are split into three and then pelleted and stored at −80° C.

[2] = system: HIV-RT levels of HIV-1 infected CEM/0 cell pellets; experiment: HIV-RT ELISA (Reverse Transcriptase Assay, non-radioactive) in cell pellets of HIV-1 infected CEM/0 T-cells; design: % of control (of RANGE) / % of control (of MEAN): concentration or dose not given beside the values; settings: for MEAN (HIV-RT): Table 5, three wells; for % of control (of RANGE): * single point determination; for MEAN X3 (HIV-RT): Table 9
Excerpt: as §1
The cell line used for these studies is CCRF/CEM/O, a human T-leukemic cell line. PEG-ASNase (ONCASPAR) is provided by Rhone-Poulenc Rorer. Saquinavir is commercially available. RPMI-1640 media (Irvine Scientific, Irvine, Calif.) is enriched with 10% Fetal Calf Serum (Gemini Biosource, Calabasas, Calif.), 5% 1M Hepes Buffer solution and 5% Non-essential amino acids (Irvine Scientific, Irvine, Calif.). The drug concentrations used are as follows:
Briefly, 2×10^6 cells/ml are stimulated with PHA+ media for 48 hours at 37° C. with 5% CO2. Also, the same number of cells are incubated in PHA(phytohemagglutinin) free media for 48 hours to serve as the negative control. At this point the cells are inoculated with the HIV-1 virus as per standard protocol. PEG-ASNase and/or Saquinavir are added to the cells in the appropriate concentrations (see above). The control cells are resuspended in drug-free media for the duration of the exposure which lasted seven days. At day five, two 1 ml aliquots of media are removed from the flasks and stored under liquid nitrogen. At day seven, two more 1 ml aliquots of media are removed from the flasks and stored under liquid nitrogen. In addition, the remaining cells are pelleted and stored at −80° C.
The samples produced from this experiment are itemized and then assayed for HIV-RT using the Reverse Transcriptase Assay, non-radioactive (Boehringer Mannheim). The standard curve is determined and the HIV-RT levels for the experimental samples are calculated.
This experiment is carried out using a similar procedure, and the same concentrations of materials as in Experiment 7, however the exposure of the HIV virus in T-cell pellets to PEG-ASNase and Saquinavir alone, and in combination is measured. It should be noted that “PEG” in Table 2a represents PEG-ASNase. […]

[3] = system: HIV-RNA in HIV-1 infected CEM/0 T-cell pellets; experiment: HIV-1 quantitative RNA assay (HIV-1 Monitor) in CEM/0 T-cell pellets; settings: for Log 10 N: Table 2, per flask; for mean, X3: Table 7; for N*: Table 7, per specimen, day 7, PEG 0.400 IU/ml, SAQ 25 uM, AZT 1 uM, MISID 0.685 uM, combinations PEG 0.233 IU/ml + SAQ 14.52 uM; for % control: Table 7 and text of Experiment 9
Experimental: This experiment is carried out using a similar procedure, and the same concentrations of materials as in Experiment 1, however the exposure of HIV-RNA in T-cell pellets to a combination of PEG-ASNase and Saquinavir is measured. […] It should be noted that “PEG” in Table 2 represents PEG-ASNase.
The cell line used for these studies is CEM/0, a human T-cell leukemic cell line. PEG-ASNase (ONCASPAR) is provided by Rhone-Poulenc Rorer. Saquinavin is commercially available. AZT is purchased from Sigma. MISID, a ribonucleotide reductase inhibitor, is synthesized as indicated in Nandy P, Lien E J, Avramis V I, Med. Chem. Res. 1995, 5:664-679. RPMI-1640 media (Irvine Scientific, Irvine, Calif.), is enriched with 10% Fetal Calf Serum (Gemini Biosource, Calabasas, Calif.), 5% 1M Hepes Buffer solution and 5% Non-essential amino acids (Irvine Scientific, Irvine, Calif.). The drug concentrations used are as follows:
as §2, with “PHA-stimulated” for “PLA-stimulated”
as §3
The samples produced from this experiment are itemized. The cell pellets of the cellular cultures (see Experiment 7) from the 90 minute viral incubation flasks are assayed for HIV-RNA quantitative assay using a kit for the assay, non-radioactive. The standard curve is determined and the HIV-RNA levels for the experimental samples are calculated and reported previously.

[4] = Experiment 7, monotherapy at IC50 concentrations or combination
[5] = Experiment 10 (3TC) text, cell pellets
[6] = Table 9, per well, listed as SAQ
[7] = Table 2a, per flask, listed as PEG
[8] = Table 9, per well, listed as PEG

CC(C)(C)NC(=O)[C@@H]1C[C@@H]2CCCC[C@@H]2CN1C[C@@H](O)[C@H](Cc1ccccc1)NC(=O)[C@H](CC(N)=O)NC(=O)c1ccc2ccccc2n1 [Saquinavir]
inhibition of HIV-RT in supernatants [1]: Great inhibition | HIV-RT (negative values set to 0) [1]: 0 pg/well | inhibition of HIV-RT in comparison with the control ([2]; Experiment 5a text, combination at synergistically reduced concentrations): approximately 15% | inhibition of HIV-RT [2, 4]: 83% | inhibition of HIV-RT [2, 5]: some inhibition | group mean (X2/X3) +/- S.D. ([2]; Table 2a): X2 = 31.10 +/− 4.67 pg/well, % CV = 15.01% | % of control (of MEAN) ([2]; Table 5): 12.7% | MEAN (HIV-RT) [2]: 0.016 pg/well | % of control (of RANGE) ([2]; Table 5): 12.7% | MEAN X3 (HIV-RT) [2]: 0.022 ng/well | HIV-RT [2, 6]: 0.021 ng/well and 0.023 ng/well | HIV-RT (negative values set to 0) [2, 6]: 0.021 ng/well and 0.023 ng/well | inhibition of HIV-1 RNA production in comparison with the control ([3]; Experiment 5 text): approximately 36% | Log 10 N ([3]; listed as SAQ): 5.06 and 5.09 | mean, X3 [3]: 125628 copies/cell pellet | N* ([3]; listed as SAQ): 138583 copies/cell pellet and 109522 copies/cell pellet and 128780 copies/cell pellet | % control [3]: 59%

Cc1cn([C@H]2C[C@H](N=[N+]=[N-])[C@@H](CO)O2)c(=O)[nH]c1=O [AZT, zidovudine]
inhibition of HIV-RT in supernatants [1]: Great inhibition | HIV-RT (negative values set to 0) [1]: 0 pg/well | inhibition of HIV-RT ([2]; Experiment 7, cell pellets): most dramatic inhibition | % of control (of MEAN) ([2]; Table 5): 0% | HIV-RT ([2]; Table 5, per well, negative values set to 0): 0 pg/well | MEAN (HIV-RT) [2]: 0 pg/well | % of control (of RANGE) ([2]; Table 5): 0% | MEAN X3 (HIV-RT) [2]: 0 ng/well | HIV-RT (negative values set to 0) ([2]; Table 9, per well): 0 ng/well | mean, X3 [3]: 102473 copies/cell pellet | N* [3]: 107269 copies/cell pellet and 97933 copies/cell pellet and 102217 copies/cell pellet | % control [3]: 48%

B1: PEG-ASNase: asparaginase conjugated with polyethylene glycol (PEG); sold under the name ONCASPAR by Rhône-Poulenc Rorer (conjugate, UniProt P00805 23-348, looked up)
L-asparaginase 2: LPNITILATGGTIAGGGDSATKSNYTVGKVGVENLVNAVPQLKDIANVKGEQVVNIGSQDMNDNVWLTLAKKINTDCDKTDGFVITHGTDTMEETAYFLDLTVKCDKPVVMVGAMRPSTSMSADGPFNLYNAVVTAADKASANRGVLVVMNDTVLDGRDVTKTNTTDVATFKSVNYGPLGYIHNGKIDYQRTPARKHTSDTPFDVSKLNELPKVGIVYNYANASDLPAKALVDAGYDGIVSAGVGNGNLYKSVFDTLATAAKTGTAVVRSSRVPTGATTQDAEVDDAKYGFVASGTLNPQKARVLLQLALTQTKDPQQIQQIFNQY
modifications: PEG conjugate (pegaspargase)
notes: asparaginase conjugated with polyethylene glycol (PEG); sold under the name ONCASPAR by Rhône-Poulenc Rorer
HIV-RT (negative values set to 0) [1]: 0 pg/well | inhibition of intracellular HIV-RT as compared to untreated control ([2]; Example 1, day 7 pellets, PEG-ASNase 0.4 IU/ml, Saquinavir 25 μM, combination 0.233 IU/ml + 14.5 μM): about 30% | effect in inhibiting HIV-RT ([2]; Experiment 5a, day 7): moderate effect | inhibition of HIV-RT [2, 4]: 54% | inhibition of HIV-RT [2, 5]: some inhibition | group mean (X2/X3) +/- S.D. ([2]; Table 2a): X3 = 68.43 +/− 11.26 pg/well, % CV = 16.45% | % cont. [2, 7]: 79.9% and 68.0% and 57.4% | HIV-RT [2, 7]: 0.330 pg/well and 0.281 pg/well and 0.237 pg/well | % of control (of MEAN) ([2]; Table 5): 46.03% | RANGE (HIV-RT, low or zero wells left out) ([2]; Table 5): 0.085 pg/well | MEAN (HIV-RT) [2]: 0.058 pg/well | % of control (of RANGE) ([2]; Table 5): 67.46% | MEAN X3 (HIV-RT) [2]: 0.159 ng/well | HIV-RT [2, 8]: 0.201 ng/well and 0.142 ng/well and 0.133 ng/well | HIV-RT (negative values set to 0) [2, 8]: 0.201 ng/well and 0.142 ng/well and 0.133 ng/well | Log 10 N ([3]; listed as PEG): 5.26 and 5.42 | mean, X3 [3]: 173448 copies/cell pellet | N* ([3]; listed as PEG): 183977 copies/cell pellet and 156304 copies/cell pellet and 180062 copies/cell pellet | % control [3]: 81% | effect on HIV-RNA in cell pellets ([3]; text of Experiments 5, 6 and 9): no apparent effect
